# Earlier results in US5849746A, “Substituted 1,4-piperazine-heteroaryl derivatives as 5-HT1D receptor agonists” (Merck Sharp & Dohme Ltd., priority 1995, dated 1998).
# Experiments:
# [1] = test system: human 5-HT1Dα and 5-HT1Dβ receptor subtypes; conditions: cf. WO-A-91/17174, Table 1
# [2] = humans, therapeutic doses
smiles,measurement,setting,value
CNS(=O)(=O)Cc1ccc2[nH]cc(CCN(C)C)c2c1 [sumatriptan],discrimination between human 5-HT1Dα and 5-HT1Dβ receptor subtypes (in words),[1],barely discriminates between the human 5-HT1Dα and 5-HT1Dβ receptor subtypes
same,adverse cardiovascular events,[2],certain adverse cardiovascular events
